Assay results as given in ChEMBL document CHEMBL1150806, “A new macrocyclic trichothecene, 12,13-deoxyroridin E, produced by the marine-derived fungus Myrothecium roridum collected in Palau” (J Nat Prod, 2001).
Converted amounts (≈) assume the structure as drawn.

Key:
L1210 = test: Cytotoxicity against mouse L1210 cells after 72 hrs by WST8 assay; format: functional, cell-based
HL-60 = test: Cytotoxicity against human HL60 cells after 72 hrs by WST8 assay; format: functional, cell-based

Row | Structure (SMILES) | IC50 (L1210; Mus musculus, L1210, 72 h, read-out: IC50) [ng/mL] | IC50 (HL-60; Homo sapiens, HL-60, 72 h, read-out: IC50) [ng/mL] | IC50 (L1210; l1210) [ng/mL] | IC50 (HL-60; hl-60) [ng/mL]
1 | C=C1[C@H]2C[C@H]3OC(=O)/C=C\C=C\[C@H]([C@@H](C)O)OCC/C(C)=C/C(=O)OC[C@@]4(CCC(C)=C[C@H]4O2)[C@]13C | 1.5 (≈ 3.01 nM) | 25 (≈ 50.1 nM) |  | 
2 | CC1=C[C@H]2O[C@@H]3C[C@H]4OC(=O)/C=C\C=C\[C@H]([C@@H](C)O)OCC/C(C)=C/C(=O)OC[C@@]2(CC1)[C@]4(C)[C@]31CO1 [RORIDIN E] |  |  | 0.2 (≈ 0.389 nM) | 0.3 (≈ 0.583 nM)
3 | CC1=C[C@H]2O[C@@H]3C[C@H]4OC(=O)/C=C\C=C\C(=O)OCC[C@@H](C)[C@H](O)C(=O)OC[C@@]2(CC1)[C@]4(C)[C@]31CO1 [VERRUCARIN A] |  |  | 0.35 (≈ 0.696 nM) | 0.2 (≈ 0.398 nM)
4 | CC1=C[C@H]2O[C@@H]3C[C@H]4OC(=O)/C=C\C=C\C(=O)OCC/C(C)=C/C(=O)OC[C@@]2(CC1)[C@]4(C)[C@]31CO1 [VERRUCARIN J] |  |  | 2.5 (≈ 5.16 nM) | 2.5 (≈ 5.16 nM)
